Key:
P2X7R = biological target: T1, P2X7R (Rattus norvegicus, UniProt Q64663); test: P2X7R brain occupancy, ex vivo receptor binding autoradiography; format: in vivo; conditions: sc, rats, 15 mg/kg s.c., hippocampal slices, [3H] JNJ-54232334 autoradiography
T1 construct: from tissue; host or cells: rat (Wistar) brain, hippocampal slices
T1 sequence (Q64663 1-595): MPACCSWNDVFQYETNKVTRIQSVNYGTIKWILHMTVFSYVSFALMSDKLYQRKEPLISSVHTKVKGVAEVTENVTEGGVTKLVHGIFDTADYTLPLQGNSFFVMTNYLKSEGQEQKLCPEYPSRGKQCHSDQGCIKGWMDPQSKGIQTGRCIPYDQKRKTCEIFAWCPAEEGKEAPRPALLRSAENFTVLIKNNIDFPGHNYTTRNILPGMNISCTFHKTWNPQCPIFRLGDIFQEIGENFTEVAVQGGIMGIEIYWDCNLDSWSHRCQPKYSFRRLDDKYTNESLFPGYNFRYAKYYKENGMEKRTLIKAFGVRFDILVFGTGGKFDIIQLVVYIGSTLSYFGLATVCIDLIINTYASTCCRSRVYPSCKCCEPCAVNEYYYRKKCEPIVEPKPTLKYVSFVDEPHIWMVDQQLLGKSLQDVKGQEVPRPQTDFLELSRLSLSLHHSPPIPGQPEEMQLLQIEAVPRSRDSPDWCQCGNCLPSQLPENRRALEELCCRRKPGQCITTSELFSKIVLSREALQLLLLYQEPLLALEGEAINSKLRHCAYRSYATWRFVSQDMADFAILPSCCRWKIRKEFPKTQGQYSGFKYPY
Description: Plasma and brain samples from experiments with JNJ-47965567 were quantified at the Neuroscience Therapeutic Area, Janssen Research & Development (San Diego, CA, USA) using an API 4000 MS/MS system (Applied Biosystems, Concord, ON, Canada) interfaced with an Agilent 1100 Series HPLC (Agilent Technologies). To measure the percentage of P2X7R brain occupancy of JNJ-47965567, ex vivo receptor binding autography was performed as recently described. Briefly, 20 μm-thick hippocampal slices were prepared and P2X7R radioligand binding was determined at room temperature with 10 nM [^3H] JNJ-54232334 (Janssen) in 50 mM Tris-HCl incubation buffer containing 0.1% bovine serum albumin. The non-specific binding was measured using adjacent sections incubated in the additional presence of 100 μM A-740003 (Tocris Bioscience, Bristol UK). Sections were incubated for 1 min, washed in ice-cold incubation buffer (4 times, 5 min each), followed by two dips in deionized water and rapidly dry under a stream of cold air before acquisition. Quantitative analysis was performed using the Tracer ß-Imager with M3 Vision software (Biospace Lab, Paris, France). Ex vivo receptor labelling was expressed as the percentage of receptor labelling in corresponding brain areas of vehicle-treated control animals.

[1] = tested on: electroshock-induced tonic (hindlimb extension) seizures; test: Maximal electroshock seizure threshold test (MES-T); format: in vivo; conditions: mice
Description: The stimulus train was applied via ear-clip electrodes (sinusoidal pulses 4-14 mA, 50 Hz, 0.2 s duration) by means of a constant current stimulator (rodent-shocker type 221; Hugo Sachs Elektronik, March-Hugstetten, Germany). […] Groups of 20 mice were used. Control groups, which received the corresponding vehicle, were tested together with the compound-treated groups on the same experimental day. Current intensity-effect curves were obtained on the basis of the number of animals responding with the endpoint at the corresponding current value. The results are calculated as convulsive current fifty (CC50) values (current intensity in mA, necessary to produce tonic hindlimb extension in 50% of the mice tested) including the confidence limits for 95% probability. […] Chemicals, Toronto, Canada) was slowly added. The pH was adjusted with 1N NaOH (similar amount of NaOH as HCl), all with continuous stirring. […] The drug solutions or suspensions were prepared immediately before use; all doses refer to the salts. Animals in the control group received equivalent volumes of the vehicle (in mice always 10 ml/kg, in rats 1 ml/kg [JNJ], 3 ml/kg [AFC] or 4 ml/kg [BBG, TIIAS], depending on the solubility of the different compounds). Doses and peak time effects were selected on the basis of effective doses from corresponding in vivo studies in the literature: BBG (e.g.), tanshinone IIA (e.g.) and from manufacturer's experimental data: AFC, JNJ (see, [80]). Data were analysed using SigmaPlot (vers. 12.0, Systat Software, Erkrath, Germany) and SPSS (IBM SPSS Statistics 20, […], Germany), respectively. Results are expressed as mean ± SEM. […] In the PTZ-T, the number of animals in the group with clonic seizures and the latency time were analysed using Fisher's exact probability test and the Mann-Whitney rank sum test, respectively. […] In the PTZ-kindling model, the mean seizure stage within a group was calculated in relation to the number of PTZ-injections. […] In fully kindled rats, the calculated mean seizure stage within a group after vehicle- and compound-treatment were compared using a paired t-test. […]

Compound: O=C(NCC1(N2CCN(c3ccccc3)CC2)CCOCC1)c1cccnc1Sc1ccccc1 [JNJ-47965567, N-[[4-(4-phenyl-piperazin-1-yl)tetrahydro-2H-pyran-4-yl]-methyl]-2-(phenyl-thio) nicotinamide]
- receptor occupancy at 15 mg/kg (P2X7R): 98 ± 2%
- seizure threshold in MES-T at the higher doses ([1]; AFC 50 mg/kg, JNJ 30 mg/kg, alone): small, but non-significant increase in seizure threshold
- anticonvulsant effectiveness of co-administration with carbamazepine compared to carbamazepine alone (MES-T) ([1]; AFC 25 and 50 mg/kg s.c. or JNJ 15 and 30 mg/kg s.c. 30 min before, with carbamazepine 7 mg/kg i.p., P < 0.01): significantly increased the anticonvulsant effectiveness
